Test results taken from patent publication US20130216666A1, “CASHEW NUT SHELL LIQUID WITH IMPROVED STABILITY” (IDEMITSU KOSAN CO., LTD., priority 2010, published 2013).
Read-outs that look alike come from different tables or passages of the source.

Experiments:
[1] = 80° C.; for inhibition of the decarboxylation: a day
Description: The EDTA was prepared as a 10% aqueous solution for the addition.
Samples were taken from the beakers after a day and analyzed for composition by HPLC.

[2] = Inhibition of decarboxylation reaction when organic acid chelating agent was added (HPLC); type: physicochemical; settings: 80° C.
[3] = 1% by weight in unheated CNSL, Day 0
[4] = 1% by weight in unheated CNSL, Day 1
[5] = 5% by weight in unheated CNSL, Day 0
[6] = 5% by weight in unheated CNSL, Day 1
[7] = 2% by weight in unheated CNSL, Day 0
[8] = 2% by weight in unheated CNSL, Day 6
[9] = 10% by weight in unheated CNSL, Day 0
[10] = 10% by weight in unheated CNSL, Day 6

In the case of `O=C(O)CN(CCN(CC(=O)O)CC(=O)O)CC(=O)O` [EDTA, ethylenediamine tetraacetic acid], the “Anacardic Acid 15:1 Composition (%)” value [1, 3] is reported as 35.11%, the “Anacardic Acid 15:1 concentration” value [1, 3] is reported as 107.38 ppm and the “Anacardic Acid 15:2 Composition (%)” value [1, 3] is reported as 14.05%. For the same compound, the “Anacardic Acid 15:2 concentration” value [1, 3] was 42.98 ppm, the “Anacardic Acid 15:3 Composition (%)” value [1, 3] was 33.26% and the “Anacardic Acid 15:3 concentration” value [1, 3] was 101.71 ppm. For the same compound, the “Cardanol 15:1 Composition (%)” value [1, 3] was 7.60%, the “Cardanol 15:1 concentration” value [1, 3] was 23.26 ppm and the “Cardanol 15:2 Composition (%)” value [1, 3] was 3.09%. For the same compound, the “Cardanol 15:2 concentration” value [1, 3] was 9.45 ppm, the “Cardanol 15:3 Composition (%)” value [1, 3] was 6.88% and the “Cardanol 15:3 concentration” value [1, 3] was 21.05 ppm. The “Anacardic Acid 15:1 Composition (%)” value [1, 4] was 27.63%, the “Anacardic Acid 15:1 concentration” value [1, 4] was 61.63 ppm and the “Anacardic Acid 15:2 Composition (%)” value [1, 4] was 11.56%. The “Anacardic Acid 15:2 concentration” value [1, 4] was 25.79 ppm, the “Anacardic Acid 15:3 Composition (%)” value [1, 4] was 26.75% and the “Anacardic Acid 15:3 concentration” value [1, 4] was 59.67 ppm. For the same compound, the “Cardanol 15:1 Composition (%)” value [1, 4] was 15.11%, the “Cardanol 15:1 concentration” value [1, 4] was 33.70 ppm and the “Cardanol 15:2 Composition (%)” value [1, 4] was 5.60%. For the same compound, the “Cardanol 15:2 concentration” value [1, 4] was 12.49 ppm, the “Cardanol 15:3 Composition (%)” value [1, 4] was 13.34% and the “Cardanol 15:3 concentration” value [1, 4] was 29.75 ppm. For the same compound, the “inhibition of the decarboxylation” value ([1]; 1% by weight) was “moderate inhibition”, the “Anacardic Acid 15:1 Composition (%)” value [1, 5] was 35.11% and the “Anacardic Acid 15:1 concentration” value [1, 5] was 107.38 ppm. For the same compound, the “Anacardic Acid 15:2 Composition (%)” value [1, 5] was 14.05%, the “Anacardic Acid 15:2 concentration” value [1, 5] was 42.98 ppm and the “Anacardic Acid 15:3 Composition (%)” value [1, 5] was 33.26%. The “Anacardic Acid 15:3 concentration” value [1, 5] was 101.71 ppm, the “Cardanol 15:1 Composition (%)” value [1, 5] was 7.60% and the “Cardanol 15:1 concentration” value [1, 5] was 23.26 ppm. For the same compound, the “Cardanol 15:2 Composition (%)” value [1, 5] was 3.09%, the “Cardanol 15:2 concentration” value [1, 5] was 9.45 ppm and the “Cardanol 15:3 Composition (%)” value [1, 5] was 6.88%. The “Cardanol 15:3 concentration” value [1, 5] was 21.05 ppm, the “Anacardic Acid 15:1 Composition (%)” value [1, 6] was 29.16% and the “Anacardic Acid 15:1 concentration” value [1, 6] was 101.34 ppm. The “Anacardic Acid 15:2 Composition (%)” value [1, 6] was 11.39%, the “Anacardic Acid 15:2 concentration” value [1, 6] was 39.59 ppm and the “Anacardic Acid 15:3 Composition (%)” value [1, 6] was 27.51%. The “Anacardic Acid 15:3 concentration” value [1, 6] was 95.61 ppm, the “Cardanol 15:1 Composition (%)” value [1, 6] was 14.21% and the “Cardanol 15:1 concentration” value [1, 6] was 49.37 ppm. The “Cardanol 15:2 Composition (%)” value [1, 6] was 5.34%, the “Cardanol 15:2 concentration” value [1, 6] was 18.56 ppm and the “Cardanol 15:3 Composition (%)” value [1, 6] was 12.39%. For the same compound, the “Cardanol 15:3 concentration” value [1, 6] was 43.07 ppm and the “inhibition of the decarboxylation” value ([1]; 5% by weight) was “significant inhibition”.

With `O=C(O)CC(O)C(=O)O` (centres unmarked) [Malic Acid, malic acid] the “Anacardic Acid 15:1 Composition (%)” value [2, 7] was 39.93%, the “Anacardic Acid 15:1 concentration” value [2, 7] was 321.20 ppm and the “Anacardic Acid 15:2 Composition (%)” value [2, 7] was 14.22%. For the same compound, the “Anacardic Acid 15:2 concentration” value [2, 7] was 114.37 ppm, the “Anacardic Acid 15:3 Composition (%)” value [2, 7] was 33.03% and the “Anacardic Acid 15:3 concentration” value [2, 7] was 265.67 ppm. For the same compound, the “Cardanol 15:1 Composition (%)” value [2, 7] was 5.30%, the “Cardanol 15:1 concentration” value [2, 7] was 42.62 ppm and the “Cardanol 15:2 Composition (%)” value [2, 7] was 2.27%. The “Cardanol 15:2 concentration” value [2, 7] was 18.28 ppm, the “Cardanol 15:3 Composition (%)” value [2, 7] was 5.26% and the “Cardanol 15:3 concentration” value [2, 7] was 42.29 ppm. The “Anacardic Acid 15:1 Composition (%)” value [2, 8] was 30.38%, the “Anacardic Acid 15:1 concentration” value [2, 8] was 258.72 ppm and the “Anacardic Acid 15:2 Composition (%)” value [2, 8] was 10.45%. For the same compound, the “Anacardic Acid 15:2 concentration” value [2, 8] was 88.98 ppm, the “Anacardic Acid 15:3 Composition (%)” value [2, 8] was 24.29% and the “Anacardic Acid 15:3 concentration” value [2, 8] was 206.87 ppm. For the same compound, the “Cardanol 15:1 Composition (%)” value [2, 8] was 15.35%, the “Cardanol 15:1 concentration” value [2, 8] was 130.72 ppm and the “Cardanol 15:2 Composition (%)” value [2, 8] was 5.81%. For the same compound, the “Cardanol 15:2 concentration” value [2, 8] was 49.51 ppm, the “Cardanol 15:3 Composition (%)” value [2, 8] was 13.71% and the “Cardanol 15:3 concentration” value [2, 8] was 116.77 ppm. For the same compound, the “Anacardic Acid 15:1 Composition (%)” value [2, 9] was 39.28%, the “Anacardic Acid 15:1 concentration” value [2, 9] was 270.21 ppm and the “Anacardic Acid 15:2 Composition (%)” value [2, 9] was 14.28%. For the same compound, the “Anacardic Acid 15:2 concentration” value [2, 9] was 98.21 ppm, the “Anacardic Acid 15:3 Composition (%)” value [2, 9] was 33.24% and the “Anacardic Acid 15:3 concentration” value [2, 9] was 228.68 ppm. For the same compound, the “Cardanol 15:1 Composition (%)” value [2, 9] was 5.47%, the “Cardanol 15:1 concentration” value [2, 9] was 37.65 ppm and the “Cardanol 15:2 Composition (%)” value [2, 9] was 2.39%. For the same compound, the “Cardanol 15:2 concentration” value [2, 9] was 16.44 ppm, the “Cardanol 15:3 Composition (%)” value [2, 9] was 5.33% and the “Cardanol 15:3 concentration” value [2, 9] was 36.70 ppm. The “Anacardic Acid 15:1 Composition (%)” value [2, 10] was 37.43%, the “Anacardic Acid 15:1 concentration” value [2, 10] was 229.25 ppm and the “Anacardic Acid 15:2 Composition (%)” value [2, 10] was 13.73%. The “Anacardic Acid 15:2 concentration” value [2, 10] was 84.08 ppm, the “Anacardic Acid 15:3 Composition (%)” value [2, 10] was 31.28% and the “Anacardic Acid 15:3 concentration” value [2, 10] was 191.59 ppm. For the same compound, the “Cardanol 15:1 Composition (%)” value [2, 10] was 7.28%, the “Cardanol 15:1 concentration” value [2, 10] was 44.57 ppm and the “Cardanol 15:2 Composition (%)” value [2, 10] was 3.41%. For the same compound, the “Cardanol 15:2 concentration” value [2, 10] was 20.90 ppm, the “Cardanol 15:3 Composition (%)” value [2, 10] was 6.87% and the “Cardanol 15:3 concentration” value [2, 10] was 42.08 ppm.

With `O=C(O)C(O)C(O)C(=O)O` (centres unmarked) [Tartaric Acid, tartaric acid] the “Anacardic Acid 15:1 Composition (%)” value [2, 7] was 42.00%, the “Anacardic Acid 15:1 concentration” value [2, 7] was 351.16 ppm and the “Anacardic Acid 15:2 Composition (%)” value [2, 7] was 13.27%. For the same compound, the “Anacardic Acid 15:2 concentration” value [2, 7] was 110.99 ppm, the “Anacardic Acid 15:3 Composition (%)” value [2, 7] was 31.29% and the “Anacardic Acid 15:3 concentration” value [2, 7] was 261.63 ppm. The “Cardanol 15:1 Composition (%)” value [2, 7] was 5.69%, the “Cardanol 15:1 concentration” value [2, 7] was 47.57 ppm and the “Cardanol 15:2 Composition (%)” value [2, 7] was 2.50%. The “Cardanol 15:2 concentration” value [2, 7] was 20.90 ppm, the “Cardanol 15:3 Composition (%)” value [2, 7] was 5.25% and the “Cardanol 15:3 concentration” value [2, 7] was 43.86 ppm. For the same compound, the “Anacardic Acid 15:1 Composition (%)” value [2, 8] was 30.33%, the “Anacardic Acid 15:1 concentration” value [2, 8] was 272.03 ppm and the “Anacardic Acid 15:2 Composition (%)” value [2, 8] was 10.57%. The “Anacardic Acid 15:2 concentration” value [2, 8] was 94.78 ppm, the “Anacardic Acid 15:3 Composition (%)” value [2, 8] was 24.25% and the “Anacardic Acid 15:3 concentration” value [2, 8] was 217.48 ppm. The “Cardanol 15:1 Composition (%)” value [2, 8] was 15.59%, the “Cardanol 15:1 concentration” value [2, 8] was 139.84 ppm and the “Cardanol 15:2 Composition (%)” value [2, 8] was 5.66%. For the same compound, the “Cardanol 15:2 concentration” value [2, 8] was 50.74 ppm, the “Cardanol 15:3 Composition (%)” value [2, 8] was 13.62% and the “Cardanol 15:3 concentration” value [2, 8] was 122.16 ppm. For the same compound, the “Anacardic Acid 15:1 Composition (%)” value [2, 9] was 39.70%, the “Anacardic Acid 15:1 concentration” value [2, 9] was 250.76 ppm and the “Anacardic Acid 15:2 Composition (%)” value [2, 9] was 14.24%. For the same compound, the “Anacardic Acid 15:2 concentration” value [2, 9] was 89.95 ppm, the “Anacardic Acid 15:3 Composition (%)” value [2, 9] was 32.59% and the “Anacardic Acid 15:3 concentration” value [2, 9] was 205.85 ppm. For the same compound, the “Cardanol 15:1 Composition (%)” value [2, 9] was 5.45%, the “Cardanol 15:1 concentration” value [2, 9] was 34.40 ppm and the “Cardanol 15:2 Composition (%)” value [2, 9] was 2.70%. For the same compound, the “Cardanol 15:2 concentration” value [2, 9] was 17.07 ppm, the “Cardanol 15:3 Composition (%)” value [2, 9] was 5.31% and the “Cardanol 15:3 concentration” value [2, 9] was 33.53 ppm. The “Anacardic Acid 15:1 Composition (%)” value [2, 10] was 39.12%, the “Anacardic Acid 15:1 concentration” value [2, 10] was 267.36 ppm and the “Anacardic Acid 15:2 Composition (%)” value [2, 10] was 13.52%. For the same compound, the “Anacardic Acid 15:2 concentration” value [2, 10] was 92.36 ppm, the “Anacardic Acid 15:3 Composition (%)” value [2, 10] was 31.14% and the “Anacardic Acid 15:3 concentration” value [2, 10] was 212.78 ppm. For the same compound, the “Cardanol 15:1 Composition (%)” value [2, 10] was 6.81%, the “Cardanol 15:1 concentration” value [2, 10] was 46.56 ppm and the “Cardanol 15:2 Composition (%)” value [2, 10] was 3.24%. The “Cardanol 15:2 concentration” value [2, 10] was 22.13 ppm, the “Cardanol 15:3 Composition (%)” value [2, 10] was 6.17% and the “Cardanol 15:3 concentration” value [2, 10] was 42.19 ppm.
